What was measured:
Assay in all cases: normalised response (% of control), CellTiter-Glo; higher = more viable cells (100 = DMSO, 0 = benzethonium chloride kill control)
Details in all cases: incubation time: 72 h
[1] = tested on: MFM-223
Procedure, shortened: (§1)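 Compound was dispensed into 384-well plates at 5 concentrations in 10-fold steps spanning a 10,000-fold range specific to that compound. Breast cancer cell lines were added as 20 µl suspension and left for 72 h before CellTox Green fluorescence (485/520 nm) and then CellTiter-Glo luminescence, read after 10 min at room temperature. Each reported value is the normalised signal at one concentration, with 0.1 % DMSO set at 100 and a positive kill control at 0 on each plate.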

[2] = tested on: CAL-148
Procedure, shortened: as §1

[3] = tested on: MDA-MB-436
Procedure, shortened: as §1

[4] = tested on: MDA-MB-453
Procedure, shortened: as §1

[5] = tested on: BT-474
Procedure, shortened: as §1

[6] = tested on: MDA-MB-231
Procedure, shortened: as §1

[7] = tested on: DU-4475
Procedure, shortened: as §1

[8] = tested on: HCC1599
Procedure, shortened: as §1

[9] = tested on: MCF-10A
Procedure, shortened: as §1

[10] = tested on: CAL-85-1
Procedure, shortened: as §1

[11] = tested on: CAL-51
Procedure, shortened: as §1

[12] = tested on: HDQ-P1
Procedure, shortened: as §1

[13] = tested on: HCC1143
Procedure, shortened: as §1

[14] = tested on: Hs578T
Procedure, shortened: as §1

[15] = tested on: HCC1937
Procedure, shortened: as §1

[16] = tested on: BT-549
Procedure, shortened: as §1

[17] = tested on: SK-BR-3
Procedure, shortened: as §1

[18] = tested on: CAL-120
Procedure, shortened: as §1

[19] = tested on: MDA-MB-468
Procedure, shortened: as §1

CC(=O)N(O)CCCCCNC(=O)CCC(=O)N(O)CCCCCNC(=O)CCC(=O)N(O)CCCCCN [Deferoxamine] (10 nM)
normalised response [1]: 96.9%
normalised response [2]: 88.3%
normalised response [3]: 96.3%
normalised response [4]: 90.2%
normalised response [5]: 94.5%
normalised response [6]: 91.5%
normalised response [7]: 92.3%
normalised response [8]: 110%
normalised response [9]: 91.4%
normalised response [10]: 93%
normalised response [11]: 87.7%
normalised response [12]: 105%
normalised response [13]: 102%
normalised response [14]: 97%
normalised response [15]: 101%
normalised response [16]: 106%
normalised response [17]: 99%
normalised response [18]: 97.4%
normalised response [19]: 98.2%

CC[C@@H]1C(=O)OC[C@@H]1Cc1cncn1C [Pilocarpine] (40 nM)
normalised response [1]: 96.1%
normalised response [2]: 96.8%
normalised response [3]: 94%
normalised response [4]: 106%
normalised response [5]: 94.3%
normalised response [6]: 97.4%
normalised response [7]: 102%
normalised response [8]: 81%
normalised response [9]: 98.1%
normalised response [10]: 103%
normalised response [11]: 127%
normalised response [12]: 98.3%
normalised response [13]: 103%
normalised response [14]: 98.1%
normalised response [15]: 97.6%
normalised response [16]: 96.1%
normalised response [17]: 89.9%
normalised response [18]: 94.2%
normalised response [19]: 94.7%

CC(=O)O[C@@]12CO[C@@H]1C[C@H](O)[C@@]1(C)C(=O)[C@H](O)C3=C(C)[C@@H](OC(=O)[C@H](O)[C@@H](NC(=O)OC(C)(C)C)c4ccccc4)C[C@@](O)([C@@H](OC(=O)c4ccccc4)[C@H]21)C3(C)C [Docetaxel] (1 nM)
normalised response [1]: 91.3%
normalised response [2]: 84.6%
normalised response [3]: 81.5%
normalised response [4]: 104%
normalised response [5]: 84.2%
normalised response [6]: 87.8%
normalised response [7]: 90.6%
normalised response [8]: 97.4%
normalised response [9]: 73.2%
normalised response [10]: 79.9%
normalised response [11]: 115%
normalised response [12]: 90%
normalised response [13]: 71.5%
normalised response [14]: 76.6%
normalised response [15]: 83.5%
normalised response [16]: 60.5%
normalised response [17]: 68.5%
normalised response [18]: 94.6%
normalised response [19]: 50.2%
